ChEMBL document CHEMBL2034905, “Synthesis of benzimidazolyl-1,3,4-oxadiazol-2ylthio-N-phenyl (benzothiazolyl) acetamides as antibacterial, antifungal and antituberculosis agents” (Eur J Med Chem, 2012)
In brackets after ≈: the same amount, converted by molar mass.

Assays:
Shigella flexneri [1] = test: Antibacterial activity against Shigella flexneri MTCC 1457 at 100 ug/disc by paper disc diffusion technique; format: functional; details: read-out: IZ
Pseudomonas aeruginosa [2] = test: Antibacterial activity against Pseudomonas aeruginosa MTCC 741 at 100 ug/disc by paper disc diffusion technique; format: functional; details: read-out: IZ
Aspergillus niger [3] = test: Antifungal activity against Aspergillus niger MTCC 282 by agar streak dilution method; format: functional
Proteus vulgaris [4] = test: Antibacterial activity against Proteus vulgaris MTCC 1771 at 100 ug/disc by paper disc diffusion technique; format: functional; details: read-out: IZ
Klebsiella pneumoniae [5] = test: Antibacterial activity against Klebsiella pneumoniae MTCC 109 at 100 ug/disc by paper disc diffusion technique; format: functional; details: read-out: IZ
[6] = test system: Mycobacterium tuberculosis; test: Antituberculosis activity against Mycobacterium tuberculosis H37Rv by Lowenstein-Jensen method; format: functional
[7] = test system: Mycobacterium tuberculosis; test: Antituberculosis activity against Mycobacterium tuberculosis H37Rv by BACTEC MGIT method; format: functional
Aspergillus clavatus [8] = test: Antifungal activity against Aspergillus clavatus MTCC 1323 at 100 ug/disc by paper disc diffusion technique; format: functional; details: read-out: IZ
Staphylococcus aureus [9] = test: Antibacterial activity against Staphylococcus aureus MTCC 96 at 100 ug/disc by paper disc diffusion technique; format: functional; details: read-out: IZ
Staphylococcus aureus [10] = test: Antibacterial activity against Staphylococcus aureus MTCC 96 by agar streak dilution method; format: functional
Aspergillus clavatus [11] = test: Antifungal activity against Aspergillus clavatus MTCC 1323 by agar streak dilution method; format: functional
Escherichia coli [12] = test: Antibacterial activity against Escherichia coli MTCC 739 by agar streak dilution method; format: functional
Shigella flexneri [13] = test: Antibacterial activity against Shigella flexneri MTCC 1457 by agar streak dilution method; format: functional
Aspergillus niger [14] = test: Antifungal activity against Aspergillus niger MTCC 282 at 100 ug/disc by paper disc diffusion technique; format: functional; details: read-out: IZ
Aspergillus fumigatus [15] = test: Antifungal activity against Aspergillus fumigatus MTCC 343 at 100 ug/disc by paper disc diffusion technique; format: functional; details: read-out: IZ
Candida albicans [16] = test: Antifungal activity against Candida albicans MTCC 183 at 100 ug/disc by paper disc diffusion technique; format: functional; details: read-out: IZ
Klebsiella pneumoniae [17] = test: Antibacterial activity against Klebsiella pneumoniae MTCC 109 by agar streak dilution method; format: functional
[18] = test system: Mycobacterium tuberculosis; test: Antituberculosis activity against Mycobacterium tuberculosis H37Rv at 6.25 ug/ml by Lowenstein-Jensen method; format: functional
Bacillus cereus [19] = test: Antibacterial activity against Bacillus cereus MTCC 430 by agar streak dilution method; format: functional
Aspergillus fumigatus [20] = test: Antifungal activity against Aspergillus fumigatus MTCC 343 by agar streak dilution method; format: functional
Salmonella typhi [21] = test: Antibacterial activity against Salmonella typhi MTCC 733 by agar streak dilution method; format: functional, Salmonella enterica subsp. enterica serovar Typhi; details: Salmonella enterica
Escherichia coli [22] = test: Antibacterial activity against Escherichia coli MTCC 739 at 100 ug/disc by paper disc diffusion technique; format: functional; details: read-out: IZ
Proteus vulgaris [23] = test: Antibacterial activity against Proteus vulgaris MTCC 1771 by agar streak dilution method; format: functional
Salmonella typhi [24] = test: Antibacterial activity against Salmonella typhi MTCC 733 at 100 ug/disc by paper disc diffusion technique; format: functional, Salmonella enterica subsp. enterica serovar Typhi; details: Salmonella enterica, read-out: IZ
Pseudomonas aeruginosa [25] = test: Antibacterial activity against Pseudomonas aeruginosa MTCC 741 by agar streak dilution method; format: functional
[26] = Lipophilicity, log P of the compound; format: physicochemical; details: octanol/water
Bacillus cereus [27] = test: Antibacterial activity against Bacillus cereus MTCC 430 at 100 ug/disc by paper disc diffusion technique; format: functional; details: read-out: IZ
Candida albicans [28] = test: Antifungal activity against Candida albicans MTCC 183 by agar streak dilution method; format: functional

Row | SMILES | zone of inhibition at 100 µg/disc (Shigella flexneri [1]) [mm] | zone of inhibition at 100 µg/disc (Pseudomonas aeruginosa [2]) [mm] | MIC (Aspergillus niger [3]) [µg/mL] | zone of inhibition at 100 µg/disc (Proteus vulgaris [4]) [mm] | zone of inhibition at 100 µg/disc (Klebsiella pneumoniae [5]) [mm] | MIC [6] [µg/mL] | MIC [7] [µg/mL] | zone of inhibition at 100 µg/disc (Aspergillus clavatus [8]) [mm] | zone of inhibition at 100 µg/disc (Staphylococcus aureus [9]) [mm] | MIC (Staphylococcus aureus [10]) [µg/mL] | MIC (Aspergillus clavatus [11]) [µg/mL] | MIC (Escherichia coli [12]) [µg/mL] | MIC (Shigella flexneri [13]) [µg/mL] | zone of inhibition at 100 µg/disc (Aspergillus niger [14]) [mm] | zone of inhibition at 100 µg/disc (Aspergillus fumigatus [15]) [mm] | zone of inhibition at 100 µg/disc (Candida albicans [16]) [mm] | MIC (Klebsiella pneumoniae [17]) [µg/mL] | inhibition at 6.25 µg/mL [18] [%] | MIC (Bacillus cereus [19]) [µg/mL] | MIC (Aspergillus fumigatus [20]) [µg/mL] | further results
1 | O=C(CSc1nnc(Cn2cnc3ccccc32)o1)Nc1nc2ccc(Br)cc2s1 | 23 | 23 | 50 (≈ 99.7 µM) | 20 | 14 | 25 (≈ 49.9 µM) | > 6.25 | 20 | 26 | 3.12 (≈ 6.22 µM) | 50 (≈ 99.7 µM) | 50 (≈ 99.7 µM) | 12.5 (≈ 24.9 µM) | 19 | 21 | 17 | 100 (≈ 199 µM) | 99 | 25 (≈ 49.9 µM) | 50 (≈ 99.7 µM) | MIC (Salmonella typhi [21]): 25 µg/mL (≈ 49.9 µM); zone of inhibition at 100 µg/disc (Escherichia coli [22]): 19 mm; MIC (Proteus vulgaris [23]): 50 µg/mL (≈ 99.7 µM); zone of inhibition at 100 µg/disc (Salmonella typhi [24]): 24 mm; MIC (Pseudomonas aeruginosa [25]): 25 µg/mL (≈ 49.9 µM); logP [26]: 4.52; zone of inhibition at 100 µg/disc (Bacillus cereus [27]): 24 mm; MIC (Candida albicans [28]): 100 µg/mL (≈ 199 µM)
2 | O=C(CSc1nnc(Cn2cnc3ccccc32)o1)Nc1nc2ccc(F)cc2s1 | 24 | 20 | 25 (≈ 56.8 µM) | 22 | 19 | 12.5 (≈ 28.4 µM) | > 6.25 | 21 | 25 | 3.12 (≈ 7.08 µM) | 50 (≈ 114 µM) | 50 (≈ 114 µM) | 6.25 (≈ 14.2 µM) | 21 | 23 | 23 | 50 (≈ 114 µM) | 99 | 6.25 (≈ 14.2 µM) | 25 (≈ 56.8 µM) | MIC (Salmonella typhi [21]): 25 µg/mL (≈ 56.8 µM); zone of inhibition at 100 µg/disc (Escherichia coli [22]): 17 mm; MIC (Proteus vulgaris [23]): 25 µg/mL (≈ 56.8 µM); zone of inhibition at 100 µg/disc (Salmonella typhi [24]): 24 mm; MIC (Pseudomonas aeruginosa [25]): 50 µg/mL (≈ 114 µM); logP [26]: 3.85; zone of inhibition at 100 µg/disc (Bacillus cereus [27]): 29 mm; MIC (Candida albicans [28]): 50 µg/mL (≈ 114 µM)
3 | O=C(CSc1nnc(Cn2cnc3ccccc32)o1)Nc1nc2ccc(I)cc2s1 | 22 | 14 | 100 (≈ 182 µM) | 26 | 14 | 200 (≈ 365 µM) | > 6.25 | 14 | 22 | 12.5 (≈ 22.8 µM) | 100 (≈ 182 µM) | 50 (≈ 91.2 µM) | 25 (≈ 45.6 µM) | 14 | < 10 | 19 | 100 (≈ 182 µM) | 96 | 25 (≈ 45.6 µM) | 100 (≈ 182 µM) | MIC (Salmonella typhi [21]): 100 µg/mL (≈ 182 µM); zone of inhibition at 100 µg/disc (Escherichia coli [22]): 15 mm; MIC (Proteus vulgaris [23]): 12.5 µg/mL (≈ 22.8 µM); zone of inhibition at 100 µg/disc (Salmonella typhi [24]): 16 mm; MIC (Pseudomonas aeruginosa [25]): 100 µg/mL (≈ 182 µM); logP [26]: 5.05; zone of inhibition at 100 µg/disc (Bacillus cereus [27]): 23 mm; MIC (Candida albicans [28]): 100 µg/mL (≈ 182 µM)
4 | O=C(CSc1nnc(Cn2cnc3ccccc32)o1)Nc1nc2ccc([N+](=O)[O-])cc2s1 | 20 | 16 | 12.5 (≈ 26.7 µM) | 15 | 16 | 50 (≈ 107 µM) | > 6.25 | 27 | 21 | 12.5 (≈ 26.7 µM) | 25 (≈ 53.5 µM) | 50 (≈ 107 µM) | 50 (≈ 107 µM) | 23 | 22 | 15 | 100 (≈ 214 µM) | 98 | 12.5 (≈ 26.7 µM) | 50 (≈ 107 µM) | MIC (Salmonella typhi [21]): 50 µg/mL (≈ 107 µM); zone of inhibition at 100 µg/disc (Escherichia coli [22]): 18 mm; MIC (Proteus vulgaris [23]): 100 µg/mL (≈ 214 µM); zone of inhibition at 100 µg/disc (Salmonella typhi [24]): 19 mm; MIC (Pseudomonas aeruginosa [25]): 100 µg/mL (≈ 214 µM); zone of inhibition at 100 µg/disc (Bacillus cereus [27]): 25 mm; MIC (Candida albicans [28]): 100 µg/mL (≈ 214 µM)
